From the NIST ThermoML archive (doi:10.1021/acs.jced.9b00179)
Numbers after ± are expanded uncertainties.

How the values were obtained:
[1] = refractive index (Na D-line) (dimensionless); details: 293.15 K; 101.33 kPa; Liquid; Standard Abbe refractometry
[2] = Crystal; DSC
[3] = Molar enthalpy of transition or fusion; details: Crystal; DSC

Row | SMILES | refractive index [1] | Triple point temperature [2] [K] | Molar enthalpy of transition or fusion [3] [kcal/mol]
1 | CC(C)O [propan-2-ol] | 1.3774 ± 0.0011 |  | 
2 | CCCC(C)=O [pentan-2-one] | 1.3892 ± 0.0011 |  | 
3 | O=C(O)c1ccccc1 [benzoic acid] |  | 396.8 ± 1 | 4.19 ± 0.43
4 | CC[C@@H]([C@H](C)O)n1ncn(-c2ccc(N3CCN(c4ccc(OC[C@@H]5CO[C@@](Cn6cncn6)(c6ccc(F)cc6F)C5)cc4)CC3)cc2)c1=O [posaconazole] |  | 444.6 ± 1 | 11.4 ± 1.17
5 | CCCO [propan-1-ol] | 1.3852 ± 0.001 |  | 
6 | O [water] | 1.3331 ± 0.001 |  | 
7 | C[C@@H](c1ncncc1F)[C@](O)(Cn1cncn1)c1ccc(F)cc1F [voriconazole] |  | 403.4 ± 1 | 6.43 ± 0.645
8 | CN(C)C=O [dimethylformamide] | 1.4303 ± 0.001 |  | 
9 | CCO [ethanol] | 1.3613 ± 0.0011 |  | 
10 | CC(C)CO [2-methyl-1-propanol] | 1.3957 ± 0.0011 |  | 
11 | CCC(C)=O [butanone] | 1.379 ± 0.0011 |  | 
12 | C[S+](C)[O-] [dimethyl sulfoxide] | 1.4791 ± 0.0011 |  | 
13 | CCCCO [butan-1-ol] | 1.3986 ± 0.0011 |  | 
